In ChEMBL document CHEMBL1201862, “PubChem BioAssay data set” (2004):
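48-hour exposure; five concentrations; linearly interpolated endpoints. Abbreviation: GI50, concentration required for 50% inhibition of growth.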 Calls of active or inactive are those of the source. No stated cut-off is given here; in the data, active = GI50 up to about 1.1 µM and inactive = higher.

Columns and labels:
Assay in all cases: NCI-60 cell line screen, 48 h
SN12C = system: SN12C
SK-MEL-5 = system: SK-MEL-5
DLD-1 = system: DLD-1
RPMI-8226 = system: RPMI-8226
LXFL 529 = system: LXFL 529
UACC-62 = system: UACC-62
NCI-H460 = system: NCI-H460
SF-539 = system: SF-539
KM12 = system: KM12
RXF 393 = system: RXF 393
SK-MEL-28 = system: SK-MEL-28
ACHN = system: ACHN
OVCAR-5 = system: OVCAR-5
OVCAR-4 = system: OVCAR-4
CCRF-CEM = system: CCRF-CEM
HL-60 = system: HL-60
MOLT-4 = system: MOLT-4
NCI-H23 = system: NCI-H23
OVCAR-3 = system: OVCAR-3
HT-29 = system: HT-29
SW-620 = system: SW-620
EKVX = system: EKVX
A549 = system: A549
HCT-15 = system: HCT-15
HCC 2998 = system: HCC 2998
M14 = system: M14
NCI-H226 = system: NCI-H226
M19-MEL = system: M19-MEL
DMS-273 = system: DMS-273
XF498 = system: XF498
SNB-75 = system: SNB-75
TK-10 = system: TK-10
SK-OV-3 = system: SK-OV-3
HCT-116 = system: HCT-116
LOX IMVI = system: LOX IMVI
SF-295 = system: SF-295
KM-20L2 = system: KM-20L2
SNB-19 = system: SNB-19
IGROV-1 = system: IGROV-1
DMS-114 = system: DMS-114
SF-268 = system: SF-268
786-0 = system: 786-0
K562 = system: K562
UACC-257 = system: UACC-257
OVCAR-8 = system: OVCAR-8
SR = system: SR
U-251 = system: U-251
HOP-62 = system: HOP-62
COLO 205 = system: COLO 205
SNB-78 = system: SNB-78
UO-31 = system: UO-31
A498 = system: A498
Malme-3M = system: Malme-3M
NCI-H522 = system: NCI-H522
SK-MEL-2 = system: SK-MEL-2
CAKI-1 = system: CAKI-1
HOP-92 = system: HOP-92
HOP-18 = system: HOP-18

## COC(=O)CC1N/C(=N\C#N)N(CCc2c[nH]c3ccccc23)C1=O (stereo unspecified)
SN12C
  GI50: > 100 µM (inactive)
SK-MEL-5
  GI50: > 100 µM (inactive)
DLD-1
  GI50: > 100 µM (inactive)
RPMI-8226
  GI50: > 100 µM (inactive)
LXFL 529
  GI50: > 100 µM (inactive)
UACC-62
  GI50: > 100 µM (inactive)
NCI-H460
  GI50: > 100 µM (inactive)
SF-539
  GI50: > 100 µM (inactive)
KM12
  GI50: > 100 µM (inactive)
RXF 393
  GI50: > 100 µM (inactive)
SK-MEL-28
  GI50: > 100 µM (inactive)
ACHN
  GI50: > 100 µM (inactive)
OVCAR-5
  GI50: > 100 µM (inactive)
OVCAR-4
  GI50: > 100 µM (inactive)
CCRF-CEM
  GI50: > 100 µM (inactive)
HL-60
  GI50: > 100 µM (inactive)
MOLT-4
  GI50: > 100 µM (inactive)
NCI-H23
  GI50: > 100 µM (inactive)
OVCAR-3
  GI50: > 100 µM (inactive)
HT-29
  GI50: > 100 µM (inactive)
SW-620
  GI50: > 100 µM (inactive)
EKVX
  GI50: 83 µM (inactive)
A549
  GI50: > 100 µM (inactive)
HCT-15
  GI50: > 100 µM
HCC 2998
  GI50: 34.5 µM (inactive)
M14
  GI50: > 100 µM (inactive)
NCI-H226
  GI50: > 100 µM (inactive)
M19-MEL
  GI50: > 100 µM (inactive)
DMS-273
  GI50: > 100 µM (inactive)
XF498
  GI50: > 100 µM (inactive)
SNB-75
  GI50: > 100 µM (inactive)
TK-10
  GI50: > 100 µM (inactive)
SK-OV-3
  GI50: > 100 µM (inactive)
HCT-116
  GI50: > 100 µM (inactive)
LOX IMVI
  GI50: > 100 µM (inactive)
SF-295
  GI50: > 100 µM (inactive)
KM-20L2
  GI50: > 100 µM (inactive)
SNB-19
  GI50: > 100 µM (inactive)
IGROV-1
  GI50: > 100 µM (inactive)
DMS-114
  GI50: > 100 µM (inactive)
SF-268
  GI50: > 100 µM (inactive)
786-0
  GI50: > 100 µM (inactive)
K562
  GI50: > 100 µM (inactive)
UACC-257
  GI50: > 100 µM (inactive)
OVCAR-8
  GI50: > 100 µM (inactive)
SR
  GI50: 94.2 µM (inactive)
U-251
  GI50: > 100 µM (inactive)
HOP-62
  GI50: > 100 µM (inactive)
COLO 205
  GI50: > 100 µM (inactive)
SNB-78
  GI50: > 100 µM (inactive)
UO-31
  GI50: 75.9 µM (inactive)

## O=C(CC1(O)C(=O)Nc2ccccc21)c1ccc(O)cc1O (stereo unspecified)
SN12C
  GI50: > 100 µM (inactive)
SK-MEL-5
  GI50: > 100 µM (inactive)
DLD-1
  GI50: > 100 µM (inactive)
A498
  GI50: > 100 µM (inactive)
Malme-3M
  GI50: > 100 µM (inactive)
RPMI-8226
  GI50: > 100 µM (inactive)
LXFL 529
  GI50: > 100 µM (inactive)
UACC-62
  GI50: > 100 µM (inactive)
NCI-H460
  GI50: > 100 µM (inactive)
SF-539
  GI50: > 100 µM (inactive)
RXF 393
  GI50: > 100 µM (inactive)
SK-MEL-28
  GI50: > 100 µM (inactive)
NCI-H522
  GI50: > 100 µM (inactive)
ACHN
  GI50: > 100 µM (inactive)
OVCAR-5
  GI50: > 100 µM (inactive)
OVCAR-4
  GI50: > 100 µM (inactive)
HL-60
  GI50: > 100 µM (inactive)
MOLT-4
  GI50: > 100 µM (inactive)
NCI-H23
  GI50: > 100 µM (inactive)
OVCAR-3
  GI50: > 100 µM (inactive)
HT-29
  GI50: > 100 µM (inactive)
SW-620
  GI50: > 100 µM (inactive)
SK-MEL-2
  GI50: > 100 µM (inactive)
EKVX
  GI50: > 100 µM (inactive)
A549
  GI50: > 100 µM (inactive)
HCT-15
  GI50: > 100 µM
M14
  GI50: > 100 µM (inactive)
NCI-H226
  GI50: > 100 µM (inactive)
M19-MEL
  GI50: > 100 µM (inactive)
CAKI-1
  GI50: > 100 µM (inactive)
DMS-273
  GI50: > 100 µM (inactive)
XF498
  GI50: > 100 µM (inactive)
SNB-75
  GI50: > 100 µM (inactive)
TK-10
  GI50: > 100 µM (inactive)
SK-OV-3
  GI50: > 100 µM (inactive)
HCT-116
  GI50: > 100 µM (inactive)
LOX IMVI
  GI50: > 100 µM (inactive)
SF-295
  GI50: > 100 µM (inactive)
KM-20L2
  GI50: > 100 µM (inactive)
HOP-92
  GI50: > 100 µM (inactive)
SNB-19
  GI50: > 100 µM (inactive)
IGROV-1
  GI50: > 100 µM (inactive)
DMS-114
  GI50: > 100 µM (inactive)
SF-268
  GI50: > 100 µM (inactive)
786-0
  GI50: > 100 µM (inactive)
K562
  GI50: > 100 µM (inactive)
UACC-257
  GI50: > 100 µM (inactive)
OVCAR-8
  GI50: > 100 µM (inactive)
HOP-62
  GI50: > 100 µM (inactive)
COLO 205
  GI50: > 100 µM (inactive)
SNB-78
  GI50: > 100 µM (inactive)
UO-31
  GI50: > 100 µM (inactive)

## CCO/C([O-])=C(/C=O)[n+]1c(C)n(C)c2ccccc21
SK-MEL-5
  GI50: > 100 µM (inactive)
DLD-1
  GI50: > 100 µM (inactive)
A498
  GI50: > 100 µM (inactive)
Malme-3M
  GI50: > 100 µM (inactive)
RPMI-8226
  GI50: > 100 µM (inactive)
LXFL 529
  GI50: > 100 µM (inactive)
UACC-62
  GI50: > 100 µM (inactive)
NCI-H460
  GI50: > 100 µM (inactive)
SF-539
  GI50: > 100 µM (inactive)
KM12
  GI50: > 100 µM (inactive)
RXF 393
  GI50: > 100 µM (inactive)
SK-MEL-28
  GI50: > 100 µM (inactive)
NCI-H522
  GI50: > 100 µM (inactive)
OVCAR-5
  GI50: > 100 µM (inactive)
OVCAR-4
  GI50: > 100 µM (inactive)
CCRF-CEM
  GI50: > 100 µM (inactive)
HL-60
  GI50: > 100 µM (inactive)
HOP-18
  GI50: > 100 µM (inactive)
MOLT-4
  GI50: > 100 µM (inactive)
NCI-H23
  GI50: > 100 µM (inactive)
OVCAR-3
  GI50: > 100 µM (inactive)
HT-29
  GI50: > 100 µM (inactive)
SW-620
  GI50: > 100 µM (inactive)
SK-MEL-2
  GI50: > 100 µM (inactive)
EKVX
  GI50: > 100 µM (inactive)
A549
  GI50: > 100 µM (inactive)
HCT-15
  GI50: > 100 µM
HCC 2998
  GI50: > 100 µM (inactive)
M14
  GI50: > 100 µM (inactive)
NCI-H226
  GI50: > 100 µM (inactive)
M19-MEL
  GI50: > 100 µM (inactive)
CAKI-1
  GI50: > 100 µM (inactive)
DMS-273
  GI50: > 100 µM (inactive)
SNB-75
  GI50: > 100 µM (inactive)
TK-10
  GI50: > 100 µM (inactive)
SK-OV-3
  GI50: > 100 µM (inactive)
HCT-116
  GI50: > 100 µM (inactive)
LOX IMVI
  GI50: > 100 µM (inactive)
SF-295
  GI50: > 100 µM (inactive)
KM-20L2
  GI50: > 100 µM (inactive)
SNB-19
  GI50: > 100 µM (inactive)
IGROV-1
  GI50: > 100 µM (inactive)
DMS-114
  GI50: > 100 µM (inactive)
SF-268
  GI50: > 100 µM (inactive)
786-0
  GI50: > 100 µM (inactive)
K562
  GI50: > 100 µM (inactive)
UACC-257
  GI50: > 100 µM (inactive)
OVCAR-8
  GI50: > 100 µM (inactive)
U-251
  GI50: > 100 µM (inactive)
HOP-62
  GI50: > 100 µM (inactive)
COLO 205
  GI50: > 100 µM (inactive)
SNB-78
  GI50: > 100 µM (inactive)
UO-31
  GI50: > 100 µM (inactive)
